Ends that are not written are not given here.
Columns and labels:
[1] = tested on: Human-derived Periodontal Ligament Cells (PDL Cells); experiment: Cell growth of PDL cells (cell number by Coulter counter); assay type: cell-based; conditions: peptide added at various concentrations to DMEM containing 2% FBS; counted on Days 4 and 6; versus control medium (FIG. 1, FIG. 2)
Excerpt: PDL cells were isolated from a healthy premolar carefully extracted from a patient who visited a hospital to extract teeth for orthodontic treatment so that periodontal ligament should not be damaged as far as possible, and cultured. The extracted tooth was washed with sterilized physiological saline and phosphate-buffered saline (PBS, Nissui), and then periodontal ligament existing in ⅓ of the tooth root at the center was scraped off with a sharp knife. The pieces of periodontal ligament were transferred to a plastic plate and minced into small fragments using a round-blade knife. Tissue fragments were left standing in a plate having a diameter of 35 mm (FALCON) and cultured in Dulbecco's modified Eagle medium (DMEM, Nissui) containing antibiotics (100 U/ml of penicillin G, 100 μg/ml of streptomycin and 250 μg/ml of gentamicin) and 10% fetal bovine serum (FBS, EQUITECH-BIO) at 37° C. under 5% CO2. […]
The PDL cells prepared in (1) were inoculated on a 24-well culture plate (FALCON) at a ratio of 5×10^3 cells/well. […] On Days 4 and 6, the cells were separated and dispersed by using PBS containing 0.08% trypsin and 0.04% ethylenediaminetetraacetic acid (EDTA), and cell number was counted by using a Coulter counter (COULTER Z1, Coulter Electronics). […]

bone loss model = experiment: Bone loss model (tibia defect, soft X-ray); assay type: in vivo, Wistar rats; conditions: for bone regeneration at the bone loss site (X-ray): peptide 3 mg/ml with collagen gel (Koken Atelocollagen Implant), versus control and collagen gel groups
Method: The following experiment was performed in order to examine action of the peptide of the present invention on a bone loss model. • (i) Preparation of Bone Loss Model Male Wistar rats (8-week old) were systemically anesthetized with an ethyl carbamate solution in a volume of 0.5 ml per 100 g of body weight, then the skin of the right and left hind leg tibiae and the periostium of tibiae were incised, and the periostium were reflected to expose the tibiae. Then, a hole having a diameter of 2 mm was perforated in the cortical bone at the same site by using a round bur under pouring physiological saline to form a defect reaching the medullary cavity (diameter: 2 mm, depth: 3 mm). • (ii) Test Method The bone loss site was filled with the peptide (a) (concentration: 0.3 mg/ml or 3 mg/ml) dissolved in a sodium hyaluronate preparation (trade name: ARTZ (registered trade mark), weight average molecular weight of sodium hyaluronate: about 900,000, concentration of sodium hyaluronate: 1%), and the periost and the skin were repositioned and sutured. Healing conditions of the animals 3 weeks after the operation in a group of animals filled with the peptide (peptide group), a group of animals applied with 1% PBS solution of sodium hyaluronate as a vehicle alone (HA group) and a group of animals applied with no substance before the suture of the skin periosteal flap (control group) were examined by using X-ray. • (iii) Results In a similar manner, experiments were performed with collagen gel (trade name: Koken Atelocollagen Implant, Koken) and the peptides (a) and (b) (concentration: 3 mg/ml).

MC3T3 cells = experiment: Cell differentiation of MC3T3 cells (ALP activity); assay type: cell-based, mouse; conditions: for cell differentiation promoting effect (ALP activity) on MC3T3 cells: at confluent state and one week after (FIG. 9, FIG. 10)
Method: As mouse-derived osteoblasts, cells of the MC3T3 cell strain or ST2 cell strain (purchased from Riken Cell Bank) were used. • (iii) Rat Femur Bone Marrow-derived Mesenchymal Stem Cells (BMMSC)
As an index of cell differentiation, alkaline phosphatase (ALP) activity of cells was determined. Cells were inoculated in a 24-well culture plate at a ratio of 5×10^3 cells/well, added with the peptide (a) at various concentrations and cultured in DMEM or αMEM containing 2% FBS. One week after the time point when the cells reached a confluent state, ALP activity was determined by the following enzymochemical method (Bessey-Lowry method, Bessey O A, Lowry O H and Brock M J, A method for the rapid determination of alkaline phosphatase with five cubic millimeter of serum, J. Biol. Chem., 164:321-329, 1946).
The cultured cells were washed with PBS and then disrupted in 10 mM Tris-HCl buffer (pH 7.4, 500 μl) for 40 seconds by using an ultrasonic homogenizer (Handy Sonic model UR-20P, Tomy Seiko) and stirred. Then, 25 μl of this sample liquid was added to 125 μl of ALP buffer (0.1 M carbonate buffer, pH 9.8, 6.7 mM p-nitrophenyl phosphate, 2 mM MgCl2) and incubated at 37° C. for 30 minutes. The reaction was terminated by addition of 125 μl of 0.2 N NaOH, and absorbance was measured at 405 nm by using a microplate reader (Model 550, Bio-Rad Laboratories).
Further, the peptides (a) and (b) were similarly examined by using the MC3T3 cells. ALP activity determined when the cells reached a confluent state is shown in FIG. 9, and ALP activity determined one week after the confluent state was attained is shown in FIG. 10. The symbol “cont” in the figures indicates the results for the cells cultured in αMEM containing 2% FBS alone, “PN” indicates the results for the cells cultured in the medium added only with the peptide (a), and “HN” indicates the results for the cells cultured in the medium added only with the peptide (b). Further, “ng” in the figures represents “ng/ml.” […]

Sequence | PDL cell number (cell growth promoting effect) [1] | bone regeneration at the bone loss site (X-ray) (bone loss model) | bone regeneration at the bone loss site (soft X-ray images) (bone loss model; peptide (a) 0.3 mg/ml or 3 mg/ml in 1% sodium hyaluronate preparation (ARTZ), 3 weeks after operation, versus control and HA groups) | cell differentiation promoting effect (ALP activity) on MC3T3 cells (MC3T3 cells) | cell differentiation promoting effect (ALP activity) on the MC3T3 cell strain (MC3T3 cells; final concentration of 100 ng/ml, versus control (FIG. 12))
VPAFPRQPGTPGVASL [Peptide (a)] | significantly increased | bone had been regenerated to such an extent that bone loss could hardly be recognized | bone had been regenerated to such an extent that bone loss could hardly be recognized | significant cell differentiation promoting effect | 
VPFFPQQSGTPGMASL [Peptide (b), peptide designed on the portion of human-derived sheathlin protein corresponding to (a)] |  | bone had been regenerated to such an extent that bone loss could hardly be recognized |  | significant cell differentiation promoting effect | high cell differentiation promoting effect
